# Measurements published in US20220323443A1, “COMBINATION THERAPY FOR CANCER TREATMENT” (TAKEDA PHARMACEUTICAL COMPANY LIMITED, priority 2019, published 2022).
# Structures can show the parent of a compound that is named as a salt. Where two headings read alike, the source gives them in different places. *1 amine or outer side, *2 acyl side, *3 side chain or, on linkers, in order; H or OH if unused. Where a SMILES comes first, the peptide text is derived from it. Bridges are numbered along the chain shown (N, C = ends). Roman numbers before positions name the chains, in order. [ ]: non-standard residue; d: D form. Actinocin(9to1) = Cc1c2oc3c(C)ccc(C(=O)[*:1])c3nc-2c(C(=O)[*:2])c(N)c1=O; NMeV = CN[C@H](C(=O)O)C(C)C; Sar = CNCC(=O)O
# Key:
# Assay in all cases: In vitro combination study with Compound 1, Cell Titer-Glo (ATP) cell viability, 72 h;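 on Call, anti-proliferative effect of combination with Compound 1, A549: Ten-by-ten dose matrices of the two agents in duplicate, compounds added 16 h post-plating, activity relative to DMSO vehicle wells, call reflects synergy evaluation from luminescence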;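 on Call, anti-proliferative effect of combination with Compound 1, COLO205: Ten-by-ten dose matrices of both agents in duplicate plus single-agent dilutions, luminescent ATP read-out, percent activity per well relative to DMSO vehicle wells, synergy call from these matrices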;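 on Call, anti-proliferative effect of combination with Compound 1, H460: Ten-by-ten dose matrices of both drugs alongside single-agent dilutions, luminescence read 72 hours after compound addition, percent activity per well versus vehicle (DMSO) plate controls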;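 on Call, anti-proliferative effect of combination with Compound 1, HCT116: combination call from 10×10 dose matrices in duplicate, graded by synergy, with percent activity per well relative to DMSO vehicle controls on the same plate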;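 on Call, anti-proliferative effect of combination with Compound 1, SW620: Ten-by-ten dose matrices of both drugs in 384-well plates, luminescent ATP read-out, synergy evaluated against single-agent and DMSO vehicle controls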
# H460 cancer cells = format: cell-based
# HCT116 cancer cells = format: cell-based
# SW48 cancer cells = format: cell-based
# Description: (§1) Each combination pair was evaluated in an individual 384-well plate which contained variable doses of both compounds as single agents, as well as two, ten-by-ten matrices (in duplicate) that contained mixtures of the two test compounds. In brief, compounds were added to the cell test plates 16 hours after cell plating and then assessed for viability 72 hours later. Continuous cultures of tumor cells were maintained under standard cell culturing conditions (i.e. in a humidified chamber set at 37° C., containing atmosphere 5% carbon dioxide). […] Seventy-two hours after compound addition, ATP levels were measured to assess cell viability. Plating densities were chosen to ensure optimal linear growth over the 72 hour period.
# Compound dilution and compound delivery to the assay plates were done on HighRes Robotic System (HighRes Biosolutions, Woburn, Mass., USA) with Echo™ Liquid Handler (Labcyte, Sunnyvale, Calif., USA). First, 384-well low dead volume (LDV) plates containing DMSO (Appendix B) and 10 mM compound stock solutions were used to create the required intermediate compound dilution plates. Next, these were used for compound transfer into cell assay plates. All wells were back-filled to give a constant percentage of DMSO.
# (§2) The final DMSO concentration was held constant in all wells across the plate and was maintained at less than 0.5%. […] Cells treated with vehicle (DMSO) in two rows, or single compound serial dilutions in one plate columns/row served as the untreated control and single compound controls, respectively.
# (§3) Compound activity in A549, COLO205, H460, HCT116, SW48, SW620 cancer cell lines was assessed using Cell Titer-Glo® (Promega [Madison, Wis., USA]). After 72 hours incubation, the plates were treated as per package insert protocol for the Promega Luminescence ATP Detection Systems. Briefly, 25 μL of cell lysis/substrate solution (provided in kit form) was added to each well and the plate was incubated at room temperature for 10 minutes. Luminescence was measured using a PHERAstar multi-label counter (BMG Labtech [Ortenberg, Germany]) or LEADseeker (GE Healthcare Life Sciences [Piscataway, N.J., USA]).
# (§4) Numerical luminescence values were analyzed to generate EC50 curves and evaluate synergy. Raw Data reader files were uploaded along with automation workfiles that defined the plate and well contents. Percent activities were calculated for each well versus plate controls.
# (§5) Each plate representing a single drug combination was analyzed separately. First, the viability measurements were normalized by scaling the data so that the median of the negative controls was 0 and the median of the positive controls was 100.
# (§6) For the combination analysis, a response surface model was used to describe the relationship between the normalized viability and the drug concentrations. The data were fit to the model by minimizing the residual sum of squares. Based on the fitted response surface, plots of constant viability, called isobolograms, were produced.
# (§7) The Combination Index and Nonlinear Blending were used as measures of drug synergy. To calculate Combination Index the 50% isobologram (which is the dose contour that has 50% viability) was used. […] A standard procedure was created to produce a call in order to characterize the viability effects for each combination (synergy, additivity, subadditivity, or antagonism). If the Combination Index existed then these measures were used to make the call.
# SW620 cancer cells = format: cell-based
# Description: as §1
# (§8) Compound dilution and compound delivery to the assay plates were done on HighRes Robotic System (HighRes Biosolutions, Woburn, Mass., USA) with Echo™ Liquid Handler (Labcyte, Sunnyvale, Calif., USA). […] Next, these were used for compound transfer into cell assay plates. All wells were back-filled to give a constant percentage of DMSO.
# as §2, §3, §4, §5, §6, §7
# A549 cancer cells = format: cell-based
# Description: as §1, §8, §2, §3, §4, §5, §6, §7
# COLO205 cancer cells = format: cell-based, human
# [1] = DNA damaging agent combined with Compound 1, 72 h
# [2] = Table 5 drug combined with Compound 1, 72 h
Compound,"Call, anti-proliferative effect of combination with Compound 1, H460 (H460 cancer cells; [1])","Call, anti-proliferative effect of combination with Compound 1, HCT116 (HCT116 cancer cells; [1])","Call, anti-proliferative effect of combination with Compound 1, SW48 (SW48 cancer cells; [1])","Call, anti-proliferative effect of combination with Compound 1, SW620 (SW620 cancer cells; [1])","Call, anti-proliferative effect of combination with Compound 1, COLO205 (COLO205 cancer cells; [1])","Call, anti-proliferative effect of combination with Compound 1, A549 (A549 cancer cells)",other results
Nc1ncn([C@H]2C[C@H](O)[C@@H](CO)O2)c(=O)n1 [Decitabine],Synergy (0 to 0.7),Synergy (0 to 0.7),Additivity (0.7 to 1.3),Additivity (0.7 to 1.3),,,
COc1cc([C@@H]2c3cc4c(cc3[C@@H](O[C@@H]3O[C@@H]5CO[C@@H](c6cccs6)O[C@H]5[C@H](O)[C@H]3O)[C@H]3COC(=O)[C@H]23)OCO4)cc(OC)c1O [Teniposide],Synergy (0 to 0.7),Synergy (0 to 0.7),Synergy (0 to 0.7),Synergy (0 to 0.7),Synergy (0 to 0.7),,"Call, anti-proliferative effect of combination with Compound 1, A549 (A549 cancer cells; [1]): Synergy (0 to 0.7)"
O=C1c2c(O)ccc(O)c2C(=O)c2c(NCCNCCO)ccc(NCCNCCO)c21 [Mitoxantrone hydrochloride],Synergy (0 to 0.7),Synergy (0 to 0.7),Additivity (0.7 to 1.3),Synergy (0 to 0.7),Synergy (0 to 0.7),,"Call, anti-proliferative effect of combination with Compound 1, A549 (A549 cancer cells; [1]): Synergy (0 to 0.7)"
CO[C@@]12[C@H](COC(N)=O)C3=C(C(=O)C(C)=C(N)C3=O)N1C[C@@H]1N[C@@H]12 [Mitomycin C],Synergy (0 to 0.7),Synergy (0 to 0.7),Synergy (0 to 0.7),Synergy (0 to 0.7),Subadditivity (1.3 to 2),,"Call, anti-proliferative effect of combination with Compound 1, A549 (A549 cancer cells; [1]): Synergy (0 to 0.7)"
O=C(O)CCCc1ccc(N(CCCl)CCCl)cc1 [Chlorambucil],Additivity (0.7 to 1.3),Additivity (0.7 to 1.3),Additivity (0.7 to 1.3),,,Additivity (key: Inconclusive: Any; Additivity: 0.7 to 1.3; Synergy: 0 to 0.7; Subadditivity: 1.3 to 2; Antagonism: >2),
bleomycin,,,,,,Additivity (key: Inconclusive: Any; Additivity: 0.7 to 1.3; Synergy: 0 to 0.7; Subadditivity: 1.3 to 2; Antagonism: >2),"Call, anti-proliferative effect of combination with Compound 1, COLO205 (COLO205 cancer cells): Synergy (key: Inconclusive: Any; Additivity: 0.7 to 1.3; Synergy: 0 to 0.7; Subadditivity: 1.3 to 2; Antagonism: >2); Call, anti-proliferative effect of combination with Compound 1, H460 (H460 cancer cells): Synergy (key: Inconclusive: Any; Additivity: 0.7 to 1.3; Synergy: 0 to 0.7; Subadditivity: 1.3 to 2; Antagonism: >2); Call, anti-proliferative effect of combination with Compound 1, HCT116 (HCT116 cancer cells): Synergy (key: Inconclusive: Any; Additivity: 0.7 to 1.3; Synergy: 0 to 0.7; Subadditivity: 1.3 to 2; Antagonism: >2); Call, anti-proliferative effect of combination with Compound 1, SW48 (SW48 cancer cells): Additivity (key: Inconclusive: Any; Additivity: 0.7 to 1.3; Synergy: 0 to 0.7; Subadditivity: 1.3 to 2; Antagonism: >2); Call, anti-proliferative effect of combination with Compound 1, SW620 (SW620 cancer cells): Additivity (key: Inconclusive: Any; Additivity: 0.7 to 1.3; Synergy: 0 to 0.7; Subadditivity: 1.3 to 2; Antagonism: >2)"
N[C@@H](Cc1ccc(N(CCCl)CCCl)cc1)C(=O)O [Melphalan],,Synergy (0 to 0.7),Additivity (0.7 to 1.3),Synergy (0 to 0.7),,Synergy (key: Inconclusive: Any; Additivity: 0.7 to 1.3; Synergy: 0 to 0.7; Subadditivity: 1.3 to 2; Antagonism: >2),
Nc1ccccc1NC(=O)c1ccc(CNC(=O)OCc2cccnc2)cc1 [Entinostat],,,,,,,"Call, anti-proliferative effect of combination with Compound 1, A549 (A549 cancer cells; [2]): Synergy (0 to 0.7); Call, anti-proliferative effect of combination with Compound 1, COLO205 (COLO205 cancer cells; [2]): Subadditivity (1.3 to 2); Call, anti-proliferative effect of combination with Compound 1, H460 (H460 cancer cells; [2]): Synergy (0 to 0.7); Call, anti-proliferative effect of combination with Compound 1, HCT116 (HCT116 cancer cells; [2]): Additivity (0.7 to 1.3); Call, anti-proliferative effect of combination with Compound 1, SW48 (SW48 cancer cells; [2]): Subadditivity (1.3 to 2); Call, anti-proliferative effect of combination with Compound 1, SW620 (SW620 cancer cells; [2]): Synergy (0 to 0.7)"
COc1cc([C@@H]2c3cc4c(cc3[C@@H](O[C@@H]3O[C@@H]5CO[C@@H](C)O[C@H]5[C@H](O)[C@H]3O)[C@H]3COC(=O)[C@H]23)OCO4)cc(OC)c1O [Etoposide],,,,,,,"Call, anti-proliferative effect of combination with Compound 1, A549 (A549 cancer cells; [2]): Synergy (0 to 0.7); Call, anti-proliferative effect of combination with Compound 1, COLO205 (COLO205 cancer cells; [2]): Synergy (0 to 0.7); Call, anti-proliferative effect of combination with Compound 1, H460 (H460 cancer cells; [2]): Synergy (0 to 0.7); Call, anti-proliferative effect of combination with Compound 1, HCT116 (HCT116 cancer cells; [2]): Synergy (0 to 0.7); Call, anti-proliferative effect of combination with Compound 1, SW48 (SW48 cancer cells; [2]): Synergy (0 to 0.7); Call, anti-proliferative effect of combination with Compound 1, SW620 (SW620 cancer cells; [2]): Synergy (0 to 0.7)"
Cn1c(=O)n(-c2ccc(C(C)(C)C#N)cc2)c2c3cc(-c4cnc5ccccc5c4)ccc3ncc21 [BEZ-235],,,,,,,"Call, anti-proliferative effect of combination with Compound 1, A549 (A549 cancer cells; [2]): Additivity (0.7 to 1.3); Call, anti-proliferative effect of combination with Compound 1, COLO205 (COLO205 cancer cells; [2]): Additivity (0.7 to 1.3); Call, anti-proliferative effect of combination with Compound 1, H460 (H460 cancer cells; [2]): Additivity (0.7 to 1.3); Call, anti-proliferative effect of combination with Compound 1, HCT116 (HCT116 cancer cells; [2]): Additivity (0.7 to 1.3); Call, anti-proliferative effect of combination with Compound 1, SW48 (SW48 cancer cells; [2]): Antagonism (>2); Call, anti-proliferative effect of combination with Compound 1, SW620 (SW620 cancer cells; [2]): Subadditivity (1.3 to 2)"
S=P(N1CC1)(N1CC1)N1CC1 [Thio-tepa],Additivity (0.7 to 1.3),Synergy (0 to 0.7),Additivity (0.7 to 1.3),Synergy (0 to 0.7),,Additivity (key: Inconclusive: Any; Additivity: 0.7 to 1.3; Synergy: 0 to 0.7; Subadditivity: 1.3 to 2; Antagonism: >2),
COc1cccc2c1C(=O)c1c(O)c3c(c(O)c1C2=O)C[C@@](O)(C(=O)CO)C[C@@H]3O[C@H]1C[C@H](N)[C@H](O)[C@H](C)O1 [Doxorubicin hydrochloride],Synergy (0 to 0.7),Subadditivity (1.3 to 2),,Additivity (0.7 to 1.3),Synergy (0 to 0.7),,"Call, anti-proliferative effect of combination with Compound 1, A549 (A549 cancer cells; [1]): Synergy (0 to 0.7)"
C=CCNC1=C2C[C@@H](C)C[C@H](OC)[C@H](O)[C@@H](C)/C=C(\C)[C@H](OC(N)=O)[C@@H](OC)/C=C\C=C(/C)C(=O)NC(=CC1=O)C2=O [Compound 17-AAG],,,,,,,"Call, anti-proliferative effect of combination with Compound 1, A549 (A549 cancer cells; [2]): Additivity (0.7 to 1.3); Call, anti-proliferative effect of combination with Compound 1, COLO205 (COLO205 cancer cells; [2]): Additivity (0.7 to 1.3); Call, anti-proliferative effect of combination with Compound 1, H460 (H460 cancer cells; [2]): Additivity (0.7 to 1.3); Call, anti-proliferative effect of combination with Compound 1, HCT116 (HCT116 cancer cells; [2]): Additivity (0.7 to 1.3); Call, anti-proliferative effect of combination with Compound 1, SW620 (SW620 cancer cells; [2]): Additivity (0.7 to 1.3)"
"Cc1c2oc3c(C)ccc(C(=O)N[C@@H]4C(=O)N[C@H](C(C)C)C(=O)N5CCC[C@H]5C(=O)N(C)CC(=O)N(C)[C@@H](C(C)C)C(=O)O[C@@H]4C)c3nc-2c(C(=O)N[C@@H]2C(=O)N[C@H](C(C)C)C(=O)N3CCC[C@H]3C(=O)N(C)CC(=O)N(C)[C@@H](C(C)C)C(=O)O[C@@H]2C)c(N)c1=O [Dactinomycin] (I: T[dV]P[Sar][NMeV] / II: T[dV]P[Sar][NMeV]; ester I:1-I:C, II:1-II:C; linker I:N-II:N via Actinocin(9to1))",Additivity (0.7 to 1.3),Additivity (0.7 to 1.3),,Additivity (0.7 to 1.3),Additivity (0.7 to 1.3),Additivity (key: Inconclusive: Any; Additivity: 0.7 to 1.3; Synergy: 0 to 0.7; Subadditivity: 1.3 to 2; Antagonism: >2),
